Structure (SMILES)	melting point
CCCCCCCCCCCNC(=S)NCCCCCCCCCCC	70 to 72 °C
Cc1nc2ccc(-c3ccc(OCC4(NC(=O)OCc5ccccc5)COC4)cc3)nn2c1-c1cnc(N)c(C(F)(F)F)c1	209 to 212 °C
Nc1ccc(OCCCOc2ccc(N)cc2[N+](=O)[O-])c([N+](=O)[O-])c1	152 to 153 °C
CCCc1c(C(=O)NCc2ccc3c(Br)c(OCC(=O)O)ccc3c2)cnn1-c1ccccc1	140 to 145 °C
O=C(CCC(F)([N+](=O)[O-])[N+](=O)[O-])NNC(=O)C(F)(F)C(F)(F)F	128 to 132 °C
N#CCOc1cccnc1N	100 to 101 °C
O=C(O)c1ccc(CN(Cc2cc(Br)ccc2OCc2ccccc2)c2ccc(C(=O)O)cc2)cc1	271 °C
Cc1ccccc1C1=C(c2cccc(OCc3ccccc3)c2)OS(=O)(=O)CC1	257 to 259 °C
O=c1c2c(Br)cc(Br)cc2n(Cc2ccccc2)c(=O)n1Cc1ccccc1	169 to 172 °C
Cc1ccc(S(=O)(=O)n2c(Br)cc(-c3ccc(F)cc3)c2-c2ccc(S(C)(=O)=O)cc2)cc1	207 to 208 °C
O=C1NC(=O)C(Cc2ccc(OCCON=Cc3cccc(-c4ccccc4)c3)cc2)S1 (centres undefined)	128 °C
Nc1cc(Cl)c(Cc2ccc(C(=O)c3cnc(Cl)c(Cl)c3)cc2)c(Cl)c1	140 to 145 °C
OC(COc1ccc(Cl)cc1)(Cn1cncn1)c1ccc(Br)s1 (centres undefined)	108 to 112 °C
Cc1ccnc(-c2cccc(Oc3ccccc3C)n2)n1	121 °C
O=Cc1ccccc1-c1nc2ccccc2o1	117 to 120 °C
OC(c1ccc(F)cc1)(c1ccc(F)cc1)C1CCN(CCCOc2ccc(-c3ccccc3)cc2)CC1	108 to 109 °C
O=c1c(NCCCN(Cc2ccc(F)cc2)c2ccccn2)c(NCc2ccncc2)c1=O	198 to 201 °C
COc1ccc2cc(OCc3ccccc3)c(N)cc2c1	149 to 151 °C
Cc1ccc(C(=O)NC(C)(C)C)cn1	104 to 105 °C
COc1cc(O)c(C(=O)C=Cc2ccco2)c(OC)c1	98.4 °C
NC(=O)c1nn(-c2ccc3c(c2)OCO3)c2c1CCc1ccc(NC(=O)c3cccnc3N)cc1-2	265 to 267 °C
CC(C)C[C@H](NC(=O)OCc1ccccc1)C(=O)N[C@@H](Cc1ccccc1Cl)C(=O)CSCc1ccco1	110 °C
CC(C)Cn1c(C(=O)OC(C)(C)C)c(O)c2cc(OCc3ccccc3)ccc2c1=O	133 to 134 °C
O=C1CCNC(=O)C1C(=O)c1ccc(Cl)c(Cl)c1 (centres undefined)	172 to 174 °C
COc1ccc2oc3cccc(NCCN4CCCC4)c3c(=O)c2c1	92 to 93 °C

Structure (SMILES)	melting point
O=C(NCCO)c1cccc(-c2ccc3ccn(-c4ccc(Cl)cc4Cl)c3c2)c1	163 to 164 °C
CC(C)(C)CNc1nc(C#Cc2ccccc2)ccc1[N+](=O)[O-]	90 to 92 °C
CCC(CNC(=O)Cc1c(Cl)cncc1Cl)c1cccc(OC)c1 (centres undefined)	104 to 105 °C
CCn1ncc2c1ncc1c(N3CCN(C)CC3)nc3cc(C)nn3c12	167 to 169 °C
CC(C)(C)c1ccnc(C(=O)c2[nH]c3ccc(Cl)cc3c2CC(=O)O)c1	209 to 211 °C
C#CCN1CCC(C(C)(C)C)CC1	48 to 49 °C
N#CC1=C(c2cc3ccccc3o2)Nc2n[nH]cc2C1c1cccc2nonc12 (centres undefined)	> 270 °C
O=C(N[C@H]1CCN(CCc2ccc(F)cc2)C1)C1=c2ccccc2=CC=C2CC=CC=C21	127 to 128 °C
COc1cc(N)c(I)cc1C(=O)O	181 °C
Cc1cnn2c(-c3cccc(-c4ccccc4C#N)c3)cnc2n1	211 to 216 °C
CC(C#CC1CC(Oc2ccc(F)cc2Cl)C1)N(O)C(N)=O (single isomer, unassigned; (+))	160 °C
CC(Cl)C(CC(=O)c1ccccc1)[N+](=O)[O-] (centres undefined)	115 to 117 °C
CC(=O)NC1Cc2ccc(S(=O)(=O)Cl)cc2C1 (centres undefined)	237 to 239 °C
N#Cc1cccnc1N1CCN(CC(=O)Nc2ccccc2)CC1	110 to 112 °C
O=c1ccc(S(=O)(=O)c2[nH]c3ccccc3c2Cl)n[nH]1	250 °C
COC(=O)C1=C(C)Nc2c(c(=O)n(C)c(=O)n2C)C1c1cccc(Cl)c1 (centres undefined)	230 °C
N#Cc1ccc(Cc2c[nH]nn2)cc1	83 °C
c1ccc2c(c1)ncc1cncn12	175 to 179 °C
CCOC(=O)c1c(Cn2cncn2)nc2sc3c(c2c1-c1ccc(OC)c(OC)c1)CCN(C(=O)c1ccccc1)C3	193 to 194 °C
Cn1c2ccccc2c2c3c(c4c5ccccc5n(CCCCN)c4c21)C(=O)NC3=O	177 to 181 °C
Cc1ccc(-c2cc(C(F)(F)F)n3cnc(-c4cccnc4)c3n2)cc1C(F)(F)F	236 °C
O=C(O)c1cc(Oc2c(Cl)cc(Cl)cc2Cl)ccc1[N+](=O)[O-]	192 °C
O=P(O)(O)Cc1ccc(-c2ccccc2)cc1	246 to 248 °C
CCOC(=O)c1cnc(Nc2cccc(OC)c2)[nH]c1=O	233 to 234 °C
NC(=O)c1nnc2n1-c1sc(Cl)cc1C(c1ccccc1Cl)=NC2	248 to 251 °C

Structure (SMILES)	melting point
CCOC(=O)/C(=N\O[C@@H]1CCCC[C@@H]1C)c1csc(N)n1 (relative stereo)	123 to 126 °C
CCCCOc1ccc(S(=O)(=O)C2(C(=O)O)CCN(Cc3ccc(OC)cc3)CC2)cc1	173 °C
COc1ccccc1-c1nn(C(C)(C)C(=O)N(C)C)cc1C	146 to 148 °C
Nc1ccc(NC(=O)Nc2cccc(C(F)(F)F)c2)c(O)c1	200 to 202 °C
COC(=O)c1cccc2nc(SCCCN3CCCN(CC(=O)Nc4c(C(C)C)cccc4C(C)C)CC3)oc12	83 to 85 °C
CC1(C)CCC(C)(C)c2cc(C(=O)c3ccccc3C(=O)N(CCO)CCO)ccc21	116 °C
BrCCC=C1c2ccccc2C=Cc2ccccc21	88 to 89 °C
Cc1cc(C)c2oc(S)nc2c1C	146 to 147 °C
COc1ccc(CSc2cc(Cl)ccc2CN(C)C)cc1	66 to 68 °C
Cc1ccc(S(=O)(=O)N2CCCC2c2cccs2)cc1 (racemic)	108 °C
Cc1nc(O)c2c(n1)N(c1c(C)cc(Br)cc1C)C(=O)C2C (centres undefined)	271 to 273 °C
IC(I)=C(I)Cn1ncnn1	92 to 93 °C
CC(=O)c1cc(O)c(O)c([N+](=O)[O-])c1	159 to 160 °C
CCc1[nH]nc(C(=O)NC2CCCC2)c1NC(=O)c1cnccn1	175 to 176 °C
Cc1ccc(-c2cn3ccc(Cl)cc3n2)cc1C	144 °C
Oc1ccc(Nc2ncc3ncc(-c4ccccc4O)cc3n2)cc1	262 to 264 °C
CONCc1cc(-n2c(=O)cc(C(F)(F)F)n(C)c2=O)ccc1Cl	83 to 85 °C
CN(C)C=Nc1c(Cl)cc(N=Cc2ccc(C#N)cc2)cc1Cl	169 to 170 °C
Cc1c(-c2ccc(OCc3ccccc3)cc2)n(Cc2ccc(OCCCN3CCCCC3)cc2)c2ccc(OCc3ccccc3)cc12	104 to 106 °C
CS(=O)(=O)Nc1cc(C(c2cc(F)ccc2F)S(=O)(=O)c2ccc(F)cc2)c(Cl)cn1 (centres undefined)	178 to 179 °C
COC(=O)[C@]1(C)Cc2c([nH]c3ccc(Cl)cc23)[C@@H](c2cccc(O)c2)N1 (racemic)	240 to 241 °C
COc1ccc2c(c1)C13CCN(C)C(C2)C1OC(C)(C)OC3 (centres undefined)	132 to 133 °C
CC(C)=CCOc1ccc(OCC=C(C)C)c(C(=O)NCCc2ccncc2)c1	92.7 to 93.5 °C
CCOC(=O)c1cn(-c2cccc(COCc3ccccn3)c2)cn1	76.7 to 78.8 °C
O=C1c2ccccc2C(=O)N1CC(=O)N1c2ccccc2N(Cc2ccc(NCc3ccccc3)cc2)C(=O)[C@H]2CCC[C@H]21 (relative stereo)	178 to 182 °C

Structure (SMILES)	melting point
CC(C)(C)C(=O)CCSC(=S)Nc1ccc(Cl)cn1	111 °C
Fc1ccc(C2CN(C(c3ccccc3)c3ccccc3)C2)cc1	65 to 66 °C
O=C(N[C@H]1CCCNC1=O)c1ccc(C(F)(F)F)cc1	212 to 214 °C
CCC1SC=C(C)NC1=O (centres undefined)	69 to 71 °C
Cc1cc2c(s1)Nc1ccccc1N=C2N1CCN[C@@H](CCc2ccccc2)C1	75 to 84 °C
CC(=O)SCCC(=O)N1[C@@H](c2ccccc2O)SC[C@H]1C(=O)N[C@@H](CC(C)C)C(=O)O	78 to 84 °C
COc1c[nH]c(=O)c([N+](=O)[O-])c1	179 °C
CCCCC1=NC(Cl)(COC)CN1Cc1ccc(C(=O)O)cc1 (centres undefined)	126 to 128 °C
CCOc1ccc2c(c1)n(C1CCCCC1)c(=O)n2S(=O)(=O)c1ccc(C(=O)Nc2nccs2)cc1OC	213 °C
Cc1ccc2c(c1)C(C(=O)Nc1ccccc1C(C)C)c1ccccc1CO2 (centres undefined)	180 to 181 °C
CCCCCCCCCCCCCCCCCCNC(=O)C(N)=O	169 °C
CCOC(=O)CCc1ccc2c(c1)c(-c1cc3cccnc3n1S(=O)(=O)c1ccc(C)cc1)cn2C	280 to 282 °C
CNC(=O)c1cccc(Cl)c1Nc1nc(Nc2ccc3c(c2)CCC(N2CCC(N4CCN(C)CC4)CC2)CC3)ncc1Cl (centres undefined)	171 to 175 °C
C=CC(=O)NC(=O)NC(=O)CCl	144 to 145 °C
CCCOc1cc2sc(C(=O)O)cc2cc1OCC	192 to 194 °C
CN(C)Cc1cn(CCC(=O)O)c(=S)n1C1CCc2ccccc2C1 (centres undefined)	171 to 174 °C
CCCn1nc(C(N)=O)cc1CC(C)C	141 to 142 °C
CCCCCCCCCCCCc1nnn(CC(=O)O)n1	89 to 91 °C
COc1ccc(OC)c2nccnc12	145 to 150 °C
C#CCOc1nc(N)c(C(F)(F)F)cc1Cl	56 to 58 °C
Cn1nnc(-c2ccc(OCC(O)CNCCOc3ccc(O)c(C(N)=O)c3)cc2)n1 (centres undefined)	174 to 175 °C
Cn1cnnc1C(O)(c1ccc(Cl)cc1)c1ccc2c(c1)c(-c1cccc(Cl)c1)cc(=O)n2C (centres undefined)	182 °C
O=C(O)C(Cl)(Cl)CCCCCCCCCCCCSc1ccccc1	74 °C
O=C(O)c1cccc(N2CCC(N=Cc3ccccc3)=N2)c1	185 °C

Source: a melting point compilation (Tetko et al.; mined from patent text by program, amines drawn as free bases though some values may be those of a salt)
